In patent publication US20240299385A1 (ReWind Therapeutics NV, priority 2021, published 2024):

target: T1, human GPR17 receptor (Homo sapiens, UniProt Q13304); experiment: Calcium mobilization functional assay (Fluo-8, FLIPR TETRA) in HEK-293 hGPR17 (Gα-q assay); type: cell-based; settings: antagonism of MDL29,951 (~EC80) induced Ca2+ signal; cell line (HEK-293 hGPR17 or HEK-293 Suchi5 hGPR17) not given
T1 construct: host or cells: HEK-293
Summary of the method: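 Fluo-8-loaded HEK-293 hGPR17 cells (60 min dye loading, room temperature) were preincubated with compound for twenty minutes, then challenged with agonist MDL29,951 at ~EC80, 500 nM. Intracellular calcium release via Gα-q was recorded as FLIPR fluorescence for a further 2 minutes; compounds tested in duplicate.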

T1 sequence (Q13304 whole entry): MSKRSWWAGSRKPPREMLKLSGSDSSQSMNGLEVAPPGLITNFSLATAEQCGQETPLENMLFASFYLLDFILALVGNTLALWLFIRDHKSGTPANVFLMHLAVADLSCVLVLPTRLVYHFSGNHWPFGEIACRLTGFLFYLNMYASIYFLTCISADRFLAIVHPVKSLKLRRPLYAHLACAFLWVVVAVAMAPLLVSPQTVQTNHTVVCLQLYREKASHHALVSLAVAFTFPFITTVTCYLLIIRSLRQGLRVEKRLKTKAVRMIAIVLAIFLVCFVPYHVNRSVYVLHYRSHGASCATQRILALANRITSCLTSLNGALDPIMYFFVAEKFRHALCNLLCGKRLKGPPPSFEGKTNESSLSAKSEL

Structure (SMILES)	IC50 [µM]
N#Cc1ccc(NS(=O)(=O)c2c[nH]c(-c3cccnc3)c2)c(F)c1 [Cpd 027, N-(4-cyano-2-fluoro-phenyl)-5-(3-pyridyl)-1H-pyrrole-3-sulfonamide]	0.5 to 5
COc1nc(Br)cnc1NS(=O)(=O)c1c[nH]cc1-c1cccc(F)c1 [Cpd 469, N-(5-bromo-3-methoxypyrazin-2-yl)-4-(3-fluorophenyl)-1H-pyrrole-3-sulfonamide]	0.5 to 5
N#Cc1ccc(NS(=O)(=O)c2c[nH]cc2Cc2ccc(F)c(F)c2)c(F)c1 [Cpd 535, N-(4-cyano-2-fluorophenyl)-4-[(3,4-difluorophenyl)methyl]-1H-pyrrole-3-sulfonamide]	< 0.5
C#Cc1cc(F)c(NS(=O)(=O)c2c[nH]c(-c3ccccn3)c2)cc1F [Cpd 185, N-(4-ethynyl-2,5-difluoro-phenyl)-5-(2-pyridyl)-1H-pyrrole-3-sulfonamide]	0.5 to 5
Cc1ccc(C)c(-c2cc(S(=O)(=O)Nc3ccc(C#N)cc3F)c[nH]2)c1 [Cpd 331, N-(4-cyano-2-fluoro-phenyl)-5-(2,5-dimethylphenyl)-1H-pyrrole-3-sulfonamide]	< 0.5
N#Cc1ccc(NS(=O)(=O)c2c[nH]c(-c3ccccc3OC(F)F)c2)c(F)c1 [Cpd 244, N-(4-cyano-2-fluoro-phenyl)-5-[2-(difluoromethoxy)phenyl]-1H-pyrrole-3-sulfonamide]	< 0.5
O=S(=O)(Nc1cc(F)c(C(F)(F)F)cc1F)c1c[nH]c(-c2ccccc2)c1F [Cpd 626, N-[2,5-difluoro-4-(trifluoromethyl)phenyl]-4-fluoro-5-phenyl-1H-pyrrole-3-sulfonamide]	< 0.5
COc1cc(Cl)cnc1NS(=O)(=O)c1c[nH]c(-c2ccccc2)c1 [Cpd 134, N-(5-chloro-3-methoxy-2-pyridyl)-5-phenyl-1H-pyrrole-3-sulfonamide]	0.5 to 5
N#Cc1ccc(F)c(-c2cc(S(=O)(=O)Nc3cc(F)c(C#N)cc3F)c[nH]2)c1 [Cpd 645, N-(4-cyano-2,5-difluorophenyl)-5-(5-cyano-2-fluorophenyl)-1H-pyrrole-3-sulfonamide]	< 0.5
O=S(=O)(Nc1cc(F)c(C(F)(F)F)cc1F)c1c[nH]c(-c2cnccn2)c1 [Cpd 618, N-[2,5-difluoro-4-(trifluoromethyl)phenyl]-5-pyrazin-2-yl-1H-pyrrole-3-sulfonamide]	0.5 to 5
Cn1cnc2c(-c3cc(S(=O)(=O)Nc4ccc(C#N)cc4F)c[nH]3)cccc21 [Cpd 620, N-(4-cyano-2-fluorophenyl)-5-(1-methylbenzimidazol-4-yl)-1H-pyrrole-3-sulfonamide]	0.5 to 5
O=S(=O)(Nc1cc(F)c(OC(F)F)cc1F)c1c[nH]c(-c2cccc(Br)n2)c1 [Cpd 516, 5-(6-bromopyridin-2-yl)-N-[4-(difluoromethoxy)-2,5-difluorophenyl]-1H-pyrrole-3-sulfonamide]	< 0.5
O=S(=O)(Nc1cc(OC(F)F)c(Cl)cc1F)c1c[nH]cc1Cc1ccccc1 [Cpd 426, 4-benzyl-N-[4-chloro-5-(difluoromethoxy)-2-fluorophenyl]-1H-pyrrole-3-sulfonamide]	0.5 to 5
COc1cc(C#N)ccc1NS(=O)(=O)c1c[nH]cc1Cc1ccccc1 [Cpd 161, 4-benzyl-N-(4-cyano-2-methoxy-phenyl)-1H-pyrrole-3-sulfonamide]	5 to 50
COc1cc(C(F)(F)F)cnc1NS(=O)(=O)c1c[nH]c(-c2ccccn2)c1 [Cpd 198, N-[3-methoxy-5-(trifluoromethyl)-2-pyridyl]-5-(2-pyridyl)-1H-pyrrole-3-sulfonamide]	0.5 to 5
Cn1nccc1-c1cc(S(=O)(=O)Nc2ccc(C#N)cc2F)c[nH]1 [Cpd 078, N-(4-cyano-2-fluoro-phenyl)-5-(2-methylpyrazol-3-yl)-1H-pyrrole-3-sulfonamide]	5 to 50
N#Cc1ccc(NS(=O)(=O)c2c[nH]c(-c3ccccn3)c2)c(F)c1F [Cpd 322, N-(4-cyano-2,3-difluoro-phenyl)-5-(2-pyridyl)-1H-pyrrole-3-sulfonamide]	0.5 to 5
Cc1ccc(-c2cc(S(=O)(=O)Nc3cc(F)c(C(F)(F)F)cc3F)c[nH]2)cc1 [Cpd 295, N-[2,5-difluoro-4-(trifluoromethyl)phenyl]-5-(p-tolyl)-1H-pyrrole-3-sulfonamide]	5 to 50
O=S(=O)(Nc1cc(F)c(C(F)(F)F)cc1F)c1c[nH]c(-c2cc(CO)ccc2F)c1 [Cpd 234, N-[2,5-difluoro-4-(trifluoromethyl)phenyl]-5-[2-fluoro-5-(hydroxymethyl)phenyl]-1H-pyrrole-3-sulfonamide]	< 0.5
N#Cc1cc(F)c(NS(=O)(=O)c2c[nH]c(C3CCC3)c2)cc1F [Cpd 549, N-(4-cyano-2,5-difluorophenyl)-5-cyclobutyl-1H-pyrrole-3-sulfonamide]	< 0.5
O=S(=O)(Nc1cc(F)c(C(F)(F)F)cc1F)c1c[nH]c(-c2cc(C(F)(F)F)ccn2)c1 [Cpd 370, N-[2,5-difluoro-4-(trifluoromethyl)phenyl]-5-[4-(trifluoromethyl)-2-pyridyl]-1H-pyrrole-3-sulfonamide]	5 to 50

Structure (SMILES)	IC50 [µM]
COc1cccc(-c2cc(S(=O)(=O)Nc3ccc(C#N)cc3F)c[nH]2)c1Cl [Cpd 266, 5-(2-chloro-3-methoxy-phenyl)-N-(4-cyano-2-fluoro-phenyl)-1H-pyrrole-3-sulfonamide]	5 to 50
O=S(=O)(Nc1cc(F)c(Br)cc1F)c1c[nH]c(-c2ccccc2Cl)c1 [Cpd 533, N-(4-bromo-2,5-difluorophenyl)-5-(2-chlorophenyl)-1H-pyrrole-3-sulfonamide]	0.5 to 5
COc1ccccc1-c1cc(S(=O)(=O)Nc2cc(F)c(C(F)(F)F)cc2F)c[nH]1 [Cpd 298, N-[2,5-difluoro-4-(trifluoromethyl)phenyl]-5-(2-methoxyphenyl)-1H-pyrrole-3-sulfonamide]	0.5 to 5
O=S(=O)(Nc1cc(F)c(C(F)(F)F)cc1F)c1c[nH]c(-c2ccccc2C(F)(F)F)c1 [Cpd 361, N-[2,5-difluoro-4-(trifluoromethyl)phenyl]-5-[2-(trifluoromethyl)phenyl]-1H-pyrrole-3-sulfonamide]	0.5 to 5
COc1nc(C(F)(F)F)ccc1NS(=O)(=O)c1c[nH]c(-c2ccccc2)c1 [Cpd 147, N-[2-methoxy-6-(trifluoromethyl)-3-pyridyl]-5-phenyl-1H-pyrrole-3-sulfonamide]	0.5 to 5
COc1ccc(-c2cc(S(=O)(=O)Nc3cc(F)c(C(F)(F)F)cc3F)c[nH]2)nc1 [Cpd 304, N-[2,5-difluoro-4-(trifluoromethyl)phenyl]-5-(5-methoxy-2-pyridyl)-1H-pyrrole-3-sulfonamide]	0.5 to 5
O=S(=O)(Nc1ccc(C(F)(F)F)nc1)c1c[nH]c(-c2ccccc2)c1 [Cpd 099, 5-phenyl-N-[6-(trifluoromethyl)-3-pyridyl]-1H-pyrrole-3-sulfonamide]	0.5 to 5
N#Cc1ccc(NS(=O)(=O)c2c[nH]c(-c3nccs3)c2)c(F)c1 [Cpd 610, N-(4-cyano-2-fluorophenyl)-5-(1,3-thiazol-2-yl)-1H-pyrrole-3-sulfonamide]	< 0.5
CCn1ccnc1-c1cc(S(=O)(=O)Nc2cc(F)c(C(F)(F)F)cc2F)c[nH]1 [Cpd 248, N-[2,5-difluoro-4-(trifluoromethyl)phenyl]-5-(1-ethylimidazol-2-yl)-1H-pyrrole-3-sulfonamide]	0.5 to 5
O=S(=O)(Nc1cc(F)c(OC(F)F)cc1F)c1c[nH]cc1-c1cccc(F)c1 [Cpd 360, N-[4-(difluoromethoxy)-2,5-difluoro-phenyl]-4-(3-fluorophenyl)-1H-pyrrole-3-sulfonamide]	< 0.5
Cc1cc(NS(=O)(=O)c2c[nH]c(-c3ccccn3)c2)c(F)cc1C(F)(F)F [Cpd 336, N-[2-fluoro-5-methyl-4-(trifluoromethyl)phenyl]-5-(2-pyridyl)-1H-pyrrole-3-sulfonamide]	0.5 to 5
O=S(=O)(Nc1cccc2c1OC(F)(F)O2)c1c[nH]c(-c2ccccc2)c1 [Cpd 141, N-(2,2-difluoro-1,3-benzodioxol-4-yl)-5-phenyl-1H-pyrrole-3-sulfonamide]	0.5 to 5
COc1cc(NS(=O)(=O)c2c[nH]c(-c3ccccc3F)c2)ccc1C#N [Cpd 059, N-(4-cyano-3-methoxy-phenyl)-5-(2-fluorophenyl)-1H-pyrrole-3-sulfonamide]	0.5 to 5
N#Cc1ccc(NS(=O)(=O)c2c[nH]c(-c3ccc(Cl)cn3)c2)c(F)c1 [Cpd 499, 5-(5-chloropyridin-2-yl)-N-(4-cyano-2-fluorophenyl)-1H-pyrrole-3-sulfonamide]	5 to 50
O=S(=O)(Nc1ccc(C(F)(F)F)c(F)c1F)c1c[nH]c(-c2ccccn2)c1 [Cpd 332, N-[2,3-difluoro-4-(trifluoromethyl)phenyl]-5-(2-pyridyl)-1H-pyrrole-3-sulfonamide]	0.5 to 5
O=S(=O)(Nc1cc(F)c(OC(F)F)cc1F)c1c[nH]c(-c2cnsc2)c1 [Cpd 639, N-[4-(difluoromethoxy)-2,5-difluorophenyl]-5-(1,2-thiazol-4-yl)-1H-pyrrole-3-sulfonamide]	< 0.5
Cc1cccc(-c2cc(S(=O)(=O)Nc3ccc(C#N)cc3F)c[nH]2)c1C [Cpd 252, N-(4-cyano-2-fluoro-phenyl)-5-(2,3-dimethylphenyl)-1H-pyrrole-3-sulfonamide]	0.5 to 5
O=S(=O)(Nc1cc(F)c(OC(F)F)cc1F)c1c[nH]c(-c2nnco2)c1 [Cpd 611, N-[4-(difluoromethoxy)-2,5-difluorophenyl]-5-(1,3,4-oxadiazol-2-yl)-1H-pyrrole-3-sulfonamide]	0.5 to 5
COc1ccccc1-c1c[nH]cc1S(=O)(=O)Nc1ccc(C#N)cc1F [Cpd 223, N-(4-cyano-2-fluoro-phenyl)-4-(2-methoxyphenyl)-1H-pyrrole-3-sulfonamide]	5 to 50
COCCOc1ccc(NS(=O)(=O)c2c[nH]c(-c3ccccc3F)c2)c(F)c1 [Cpd 130, N-[2-fluoro-4-(2-methoxyethoxy)phenyl]-5-(2-fluorophenyl)-1H-pyrrole-3-sulfonamide]	5 to 50
